Reference: patent publication US20170246137A1, “SULFESTROL FOR TREATING CANCER” (CHAMAELEO PHARMA BVBA, priority 2012, published 2017)
pIC50: −log10 of the molar value.

Legend:
LNCaP = test: In vitro direct cytotoxicity, Cell titer Blue viability, 72 hrs; type: cell-based
Protocol: (§1) Cells were harvested, washed, re-suspended into growth medium and counted.
(§2) Stocks of all compounds were then serially diluted. […] Positive control was Taxotere. Taxotere was diluted in 100% DSMO to give a stock concentration of 1 mM. Stock was serially diluted. Final concentrations to which cells were exposed were 1000, 333.3, 111.1, 37.0, 12.3, 4.1, 1.4, 0.5, and 0.2 nM.

DU-145 = test: as above; type: cell-based
Protocol: as §1, §2

[1] = In vitro metabolism in human liver microsomes (STS and CYP); type: in vitro ADME; details: for Contribution to metabolism / Half-life / half-life at 5 μM: 5 μM; for half-life at 5 μM: human, liver microsomes
Protocol: In vitro metabolism pathways of DES, Mono-Sulfestrol and Di-Sulfestrol in human liver microsomes were investigated.
Special emphasis was put on desulfatation by steroid sulfatase (STS) and oxidation by cytochrome P (CYP) metabolism. Liver microsomes (Celsis in vitro Technologies) were used at a concentration of 0.5 mg/ml in a volume of 600 μl phosphate buffer pH 7.4. Estrone-3-sulfate was used as positive control.
5 μM of each compound (test and control compound) was added to the liver microsomes and the mixture was incubated at 37° C. for 5, 10, 20, 30, 50, 90 and 120 minutes. After incubation, aliquots of 45 μl were taken which were subsequently quenched with 150 μl ice cold methanol. Aliquots were incubated ≧1 h at −20° C. for protein precipitation. After precipitation, samples were centrifuged and remaining supernatant was used for analysis with LC-MS/MS. Half life of the compounds, speed of metabolism or intrinsic clearance (Clint), and contribution to metabolism of CYP and STS metabolism were calculated based on the data obtained at each time point.

[2] = tested on: platelet-rich plasma (PRP); test: Platelet-aggregation-inducing effects in platelet-rich plasma, absorbance 630 nm; type: cell-based; details: 7 minutes, human PRP
Protocol: Blood necessary to generate PRP was obtained from 4 healthy human volunteers. 100 ml of fresh venous blood from each donor was isolated directly into tubes containing 1/10th volume of the anti-coagulant Tri-Sodium Citrate (3.2% w/v). The blood and anti-coagulant were immediately mixed and the final concentration of Tri-Sodium Citrate was 0.0106 M.
PRP was prepared by centrifugation of anti-coagulated blood at 180 g for 10 minutes at room temperature. The cloudy yellow supernatant containing the platelets was removed and placed into a clean polypropylene tube. Platelet-poor plasma (PPP) was prepared by centrifuging the remaining sample at 1,200 g for 20 minutes at room temperature. The PRP was adjusted to a suitable platelet count and absorbance at 630 nm by addition of PPP.
All three compounds were dissolved in 100% DMSO to give a stock concentration of 60 mM. […] […] 100 nM gamma thrombin (Cambridge bioscience) was used as control for platelet aggregation. 90 μl aliquots of PRP were added to 96 wells plates. A baseline absorbance reading was taken at 630 nm. 5 μl of the compounds and gamma thrombin control was added to the appropriate PRP.
The plates were incubated at room temperature for 7 minutes on a plate shaker with continuous shaking. A second A630 nm reading was made after the 7 minutes incubation to measure any platelet aggregation induced by the compounds.

[3] = patients suffering from prostate cancer, 5 mg p.o. per day; cited from earlier work
prostate cancer cells = details: cited from earlier work
[4] = tested on: DU-145 prostate cancer cells; details: cited from earlier work
MCF7 = test: In vitro direct cytotoxicity, Cell titer Blue viability, 72 hrs; details: MCF7
Protocol: (§3) Cells were maintained in vitro in RPMI 1640 containing 10% (v/v) heat inactivated FBS and 2 mM L-glutamine (growth media) at 37° C. in 5% CO2 and humidified conditions. Cells were harvested, washed, resuspended into growth medium and counted. The cells were re-suspended into assay media (RPMI 1640+1% (v/v) heat inactivated FBS+ and 2 mM L-glutamine) at 0.5-1×10^5 cells/ml (dependent upon cell type) and plated into 96-well assay plates (Corning, black-wall plates) in 50 ul/well aliquots.
(§4) Plates were incubated overnight at 37° C. in 5% humidified CO2 prior to addition of the compounds. […] Stocks of all compounds were then serially diluted. Final concentrations to which cells were exposed were 300, 150, 75, 37.5, 18.75, 9.4, 4.7, 2.3, 1.2, 0.6 μM. Positive control was Cisplatin. Cisplatin was diluted in 1% FBS media to give a stock concentration of 1 mM. Cisplatin stock was then serially diluted. Final concentrations to which cells were exposed were 100, 50, 25, 12.5, 6.3, 3.1, 1.6, 0.8, 0.4, 0.2 μM.
(§5) Plates were incubated for 72 hrs at 37° C. in 5% humidified CO2 after addition of the compounds. Viability of the cells was assessed with the Cell titer Blue™ (Promega) assay. 10 μl of Cell titer Blue™ reagents was added to each test/blank well. Plates were incubated 3 h at 37° C. in 5% humidified CO2 prior to analysis. Fluorescence was measured with a Flex II station plate reader. Excitation wavelength was 570 nm, emission wave length was 600 nm, cut off was 590 nm. Raw data was processed by GraphPad Prism to calculate mean, standard deviation and IC50 values.

MDA-MB-231 = test: as above; details: MDA-MB231
Protocol: as §3, §4, §5

[5] = tested on: MCF-7 breast cancer cells; details: cited from earlier work
[6] = Estrogenic activity: body weight and plasma cholesterol levels; type: in vivo, male Sprague-Dawley rats; details: for Mean bodyweight: in g (unit assumed)
Protocol: Estrogenic activity was determined by measuring body weight and plasma cholesterol levels.
Each animal was dosed three times a day with vehicle or test compound (1st dose 7:30-8:00, 2nd dose 12:30-13:00, 3rd dose 17:00-17:30) for 14 consecutive days.
After 14 days treatment, blood was collected from the animals via cardiac puncture 4 hrs past final dosing to analyze plasma cholesterol levels. The blood was immediately transferred to a tube containing 0.5M EDTA anticoagulant. It was mixed gently and centrifuged at 1000×g at 4° C. for 15 min. Plasma was aspirated from the centrifuged blood samples, quick frozen on dry ice and stored at −80° C. for later use.
Plasma cholesterol levels were determined using a commercial ELISA kit obtained from NovaTeinBio (BG-RAT11262). Standard protocol accompanied by the kit was used without any adjustments.

[7] = + NADPH + 667-Coumate (STS inactive, CYP active)
[8] = nothing added (STS active, CYP inactive)

Q: With `CC(=O)O[C@@]12CO[C@@H]1C[C@H](O)[C@@]1(C)C(=O)[C@H](O)C3=C(C)[C@@H](OC(=O)[C@H](O)[C@@H](NC(=O)OC(C)(C)C)c4ccccc4)C[C@@](O)([C@@H](OC(=O)c4ccccc4)[C@H]21)C3(C)C` [Taxotere, reference compound] as the compound, how does the pIC50 (LNCaP; Homo sapiens, hormone-dependent prostate cancer cell line, 72 hrs) read?
A: The pIC50 was 8.70.

Q: What about the pIC50 (DU-145; Homo sapiens, DU-145, hormone-independent prostate cancer cell line, 72 hrs) of the same compound?
A: The pIC50 was 8.40.

Q: Which Contribution to metabolism [1, 7] does the source give for `C[C@]12CC[C@@H]3c4ccc(OS(=O)(=O)O)cc4CC[C@H]3[C@@H]1CCC2=O` [E-3-S, Estrone-3-sulfate] here?
A: The Contribution to metabolism was 19%.

Q: What about the Half-life [1, 7] of the same compound?
A: The Half-life was 62 min.

Q: And the Contribution to metabolism [1, 8]?
A: The Contribution to metabolism was 44%.

Q: And the Half-life [1, 8]?
A: The Half-life was 27 min.

Q: With `CC/C(=C(/CC)c1ccc(O)cc1)c1ccc(O)cc1` [DES, diethylstilbestrol, reference compound] as the compound, how does the “Absorbance (630 nm)” value ([2]; 2.3 μM, high absorbance = low aggregation) read?
A: The value was 0.264 ± 0.030.

Q: And the “Absorbance (630 nm)” value ([2]; 4.7 μM)?
A: Its value is 0.266 ± 0.031.

Q: What about the “Absorbance (630 nm)” value ([2]; 9.4 μM) of the same compound?
A: Its value is 0.264 ± 0.030.

Q: And the “Absorbance (630 nm)” value ([2]; 18.75 μM)?
A: Its value is 0.264 ± 0.030.

Q: What about the “Absorbance (630 nm)” value ([2]; 37.5 μM) of the same compound?
A: Its value is 0.264 ± 0.030.

Q: What about the “Absorbance (630 nm)” value ([2]; 75 μM) of the same compound?
A: Its value is 0.268 ± 0.032.

Q: What about the “Absorbance (630 nm)” value ([2]; 150 μM) of the same compound?
A: Its value is 0.263 ± 0.033.

Q: What about the “increase of non-cancer related deaths, mostly cardiovascular” value [3] of the same compound?
A: Its value is 36%.

Q: What about the “concentrations that do not influence prostate cancer cell growth” value (prostate cancer cells) of the same compound?
A: The value was “up to 100 ng/ml”.

Q: What about the “minimal concentration to induce cytotoxic effects” value (prostate cancer cells) of the same compound?
A: The value was 1 µg/mL.

Q: What about the “metabolism pathway in human liver microsomes (in words)” value [1] of the same compound?
A: The value was “only processed by CYP metabolism”.

Q: And the Contribution to metabolism [1, 7]?
A: The Contribution to metabolism was 131%.

Q: And the half-life at 5 μM ([1]; pH 7.4, + NADPH (STS and CYP active))?
A: Its half-life at 5 μM is 18 min.

Q: And the half-life at 5 μM ([1]; pH 7.4, nothing added (STS active, CYP inactive))?
A: The half-life at 5 μM was 194 min.

Q: And the half-life at 5 μM ([1]; pH 7.4, with 667-Coumate (STS inhibitor; concentration not stated), + NADPH + 667-Coumate (STS inactive, CYP active))?
A: The half-life at 5 μM was 14 min.

Q: What about the Contribution to metabolism [1, 8] of the same compound?
A: The Contribution to metabolism was 9%.

Q: What about the “cytotoxic effects (in words)” value [4] of the same compound?
A: Its value is “cytotoxic effects”.

Q: What about the “cytotoxicity in vitro (in words)” value (MCF7) of the same compound?
A: Its value is “cytotoxic”.

Q: What about the “cytotoxicity in vitro (in words)” value (MDA-MB-231) of the same compound?
A: The value was “cytotoxic”.

Q: What about the “effect on cell growth in vitro (in words)” value [5] of the same compound?
A: The value was “reduced cell growth in vitro”.

Q: What about the Mean bodyweight ([6]; Day 0, DES 1.5 mg/kg per day, Di-Sulfestrol 3 mg/kg per day, three doses a day) of the same compound?
A: The Mean bodyweight was 382 ± 7.8.

Q: What about the Mean bodyweight ([6]; Day 2) of the same compound?
A: The Mean bodyweight was 379 ± 9.3.

Q: And the Mean bodyweight ([6]; Day 4)?
A: The Mean bodyweight was 361 ± 8.6.

Q: And the Mean bodyweight ([6]; Day 6)?
A: The Mean bodyweight was 350 ± 8.0.

Q: And the Mean bodyweight ([6]; Day 8)?
A: The Mean bodyweight was 342 ± 8.0.

Q: What about the Mean bodyweight ([6]; Day 10) of the same compound?
A: Its Mean bodyweight is 341 ± 7.8.

Q: What about the Mean bodyweight ([6]; Day 12) of the same compound?
A: The Mean bodyweight was 337 ± 8.4.

Q: What about the Mean bodyweight ([6]; Day 14) of the same compound?
A: The Mean bodyweight was 339 ± 9.80.

Q: And the “Cholesterol (plasma)” value ([6]; after 14 days treatment, 4 hrs past final dosing, DES 1.5 mg/kg per day, Di-Sulfestrol 3 mg/kg per day)?
A: Its value is 14.9 ± 0.724 nmol/L.

Q: And the “estrogenic activity in rats (in words)” value ([6]; lowering body weight and cholesterol levels)?
A: Its value is “show estrogenic activity”.

Q: And the “cytotoxicity in vitro (in words)” value (LNCaP)?
A: The value was “cytotoxic”.

Q: What about the “cytotoxicity in vitro (in words)” value (DU-145; DU-145) of the same compound?
A: The value was “cytotoxic”.
